One block for each molecule: values may come before it.
Tests used:
[1] = Cyclic voltammetry of Mg deposition/stripping in DME; type: physicochemical; settings: for deposition overpotential: 0.25-0.26 M in DME with 10 mM Me2Mg, Pt wire WE, 25 mVs^−1; for oxidative stability: in DME, with 10 mM Me2Mg, sweep to 4.75 V
Method: FIG. 14A: Cyclic voltammetry experiments of 0.26 M 1-[Mg(DME)3] with 10 mM of Me2Mg. WE: Pt wire; CE: Mg strip; RE: Mg strip; Scan rate: 25 mVs^−1; Cycling protocol: −0.8 V to 4.0 V, 100 cycles. FIG. 14B: Cycles 1, 25, 50, 75, 100. FIG. 14C: Coulombic efficiency cycles 1-100; Cyclic voltammetry experiments of 0.26 M 1-[Mg(DME)3] with 10 mM of Me2Mg.
FIG. 15A: Cyclic voltammetry experiments of 0.25 M 2-[Mg(DME)3] with 10 mM of Me2Mg. WE: Pt wire; CE: Mg strip; RE: Mg strip; Scan rate: 25 mVs^−1; Cycling protocol: −0.8 V to 3.8 V, 100 cycles; FIG. 15B: Cycles 1, 25, 50, 75, 100. FIG. 15C: Coulombic efficiency cycles 1-100; Cyclic voltammetry experiments of 0.25 M 2-[Mg(DME)3] with 10 mM of Me2Mg.
FIG. 20: Cyclic voltammetry experiments of 0.26 M 1-[Mg(DME)3] in DME.WE: Pt wire; CE: Mg strip; RE: Mg strip; Scan rate: 25 mVs^−1; Cycling protocol: −0.8 V to 4.0 V, 200 cycles.
Cyclic voltammetry experiments of 1-[Mg(DME)3] were run in an empty N2-filled glovebox fitted with a purifier system that consists of a purifier cartridge (ca. 50% activated 4 Å molecular sieves and activated Cu catalyst) and a circulator fan, no solvent or chemicals were stored in the glovebox. Electrolyte solutions were prepared in a separate glovebox by dissolving 1-[Mg(DME)3] in 500 μL of DME and stirred with a new Teflon stir bar until complete dissolution. DME and 1-[Mg(DME)3] were only used with the glovebox circulation purifier turned off after extensive (minimum 20 minutes at […] above atmospheric pressure to ensure full atmosphere exchange) purging of the glovebox atmosphere to avoid cross-contamination with other atmospheric solvents. Upon complete dissolution of the electrolyte, the electrolyte solution was sealed and transported to the electrochemistry glovebox immediately before electrochemical experiments were performed.
Mg electrodes (99.9%, MTI) were polished with a razor blade immediately before use. Pt electrodes (wire, 0.5 mm diameter, 99.995%, Thermo Scientific) were soaked in concentrated HNO3 for at least 72 hours, rinsed with deionized water at least thrice, annealed with an H2 torch, and immediately brought into the glovebox in a flame-dried 20 mL scintillation vial while hot. Cyclic voltammetry experiments of 1-[Mg(DME)3] were performed in glass cells with 0.5 mL of electrolyte. A Pt wire served as the working electrode (WE), and Mg foils were the counter and reference electrodes (CE and RE). Experiments of 1-[Mg(DME)3] were conducted on either a Biologic SP150 potentiostat or a Biologic VSP-300 potentiostat.

[2] = Cyclic and linear sweep voltammetry of 0.1 M tetra-n-butylammonium salts in MeCN (electrochemical stability window); type: physicochemical
Source text: FIG. 12: Cyclic voltammetry and linear sweep voltammetry experiments of 0.1 M 1-[Bu4N] and [Bu4N][PF6] in MeCN; Current shown were normalized to the highest current in each experiment; FIG. 12A: Cyclic voltammogram of 1-[Bu4N] in MeCN; WE: Glassy carbon; CE: Pt wire; RE: Ag wire; scan rate=100 mVs^−1; FIGS. 12B and 12C: Linear sweep voltammograms of 0.1 M 1-[Bu4N] and [Bu4N][PF6] in MeCN; WE: Glassy carbon; CE: Pt wire; RE: Ag wire; scan rate=50 mVs^−1.
Linear sweep voltammetry experiments of 1-[Bu4N] and [Bu4N][PF6] were performed under an N2 atmosphere using a Pine Instrument Company AFCBP1 bipotentiostat using the AfterMath software package. Linear sweep voltammograms were recorded in the glovebox at 25° C. with an auxiliary Pt-coil counter electrode, Ag-wire reference electrode, and 3.0 mm glassy carbon working electrode (BASI). The electrolyte solution was 0.1 M of the corresponding tetra-n-butylammonium salt in MeCN. All reported values are referenced to an internal ferrocene/ferrocenium couple.

[3] = calculated, literature ref. 47; cited from earlier work
[4] = C2H4/CO copolymerization trials with cationic Pd catalyst
Method: In a N2 glovebox, Pd catalyst (10 μmol) was dissolved in toluene (10 mL) was transferred to a Fisher-Porter vessel. The reactor was removed from the glovebox and connected to a C2H4/CO gas feed. The N2 atmosphere was replaced with a 1:1 mixture of C2H4/CO (flow rate 300 sccm for each gas) by pressurizing the vessel to 100 psi and venting 3×. After pressurizing to 100 psi, polymerization was run for 3 hr at RT. The reaction was quenched upon exposure to air, and the polymer was precipitated by stirring with acidic methanol (0.6 mL HCl/10 mL MeOH). The polymer was collected and dried under vacuum overnight.
NMRs were recorded in a mixture of 1, 1, 1, 3, 3, 3-hexafluoro-2-propanol and C6D6 (4:1) at RT.

[5] = Solubility determination by 19F NMR with fluorobenzene internal standard
Method: Each sample was filtered, and 600 μL was transferred to a new vial. Fluorobenzene (5 μL) was added as an internal standard to the filtered solution and mixed thoroughly via pipette.

[6] = 0.1 M Bu4N salt in MeCN, glassy carbon WE
[7] = 10 μmol Pd catalyst in toluene, 100 psi 1:1 C2H4/CO, 3 hr at RT

- deposition overpotential [1]: ca. −420 mV vs. Mg/Mg^2+
- reductive overpotential, stabilized over continuous cycling ([1]; 0.26 M in DME, absence of Me2Mg): ca. 400 mV
- coulombic efficiency, stabilized with cycling ([1]; 0.26 M in DME, absence of Me2Mg, −0.8 to 2.0 V vs. Mg/Mg^2+): ca. 96%
Molecule: COCCOC.COCCOC.COCCOC.C[Si-]12(OC(C(F)(F)F)(C(F)(F)F)C(C(F)(F)F)(C(F)(F)F)O1)OC(C(F)(F)F)(C(F)(F)F)C(C(F)(F)F)(C(F)(F)F)O2.C[Si-]12(OC(C(F)(F)F)(C(F)(F)F)C(C(F)(F)F)(C(F)(F)F)O1)OC(C(F)(F)F)(C(F)(F)F)C(C(F)(F)F)(C(F)(F)F)O2.[Mg+2] [1-[Mg(DME)3], [Mg(DME)3][^MeSi^F24]2]

Molecule: F[P-](F)(F)(F)(F)F [PF6^−, reference compound]
- reductive stability [2, 6]: ca. −3.1 V vs. Fc/Fc^+

Molecule: [F][Sb]([F])([F])([F])[F] [SbF5]
- fluoride affinity [3]: 120 kcal/mol

Molecule: CC#N.FC(F)(F)c1cc([B-](c2cc(C(F)(F)F)cc(C(F)(F)F)c2)(c2cc(C(F)(F)F)cc(C(F)(F)F)c2)c2cc(C(F)(F)F)cc(C(F)(F)F)c2)cc(C(F)(F)F)c1.[CH3][Pd+]1[PH](c2ccccc2)(c2ccccc2)CC[PH]1(c1ccccc1)c1ccccc1 [[Pd(dppe)(NCMe)Me]^+[BAr^F24]^−, [Pd(dppe)(NCMe)Me][BAr^F24], reference compound]
- Activity [4, 7]: 2.28 g/mmol/h
- Polymer Yield [4, 7]: 68.6
- Activity ([4]; 100 psi of C2H4/CO): 2.3 g/mmol/h

- oxidative stability (stable up to) [2, 6]: up to 4.5 V vs. Fc/Fc^+
- reductive stability [2, 6]: ca. −3.1 V vs. Fc/Fc^+
- electrochemical stability window ([2]; in MeCN): 7.5 V
- oxidative stability surpassing that of PF6^− ([2]; in MeCN, versus [Bu4N][PF6]): ca. 1 V
- oxidative stability [1]: ca. 4.2 V vs. Mg/Mg^2+
Molecule: C[Si-]12(OC(C(F)(F)F)(C(F)(F)F)C(C(F)(F)F)(C(F)(F)F)O1)OC(C(F)(F)F)(C(F)(F)F)C(C(F)(F)F)(C(F)(F)F)O2 [[^MeSi^F24]]

Molecule: (MeCN)Si(O2C6F12)2
- fluoride affinity [3]: 113 kcal/mol

- electrochemical stability window ([2]; in MeCN): ca. 7.5 V
Molecule: [Bu4N][^MeSi^F24] [1-[Bu4N]]

- solubility in CH2Cl2 (in words) ([5]; CH2Cl2): high solubility
- solubility in benzene ([5]; in benzene, stirred 16 hr, filtered, 19F NMR): 100 µM
- solubility in dichloromethane ([5]; in dichloromethane, 19F NMR): 400 µM
Molecule: [K][^tBu2ArSi^F24] [3-[K]]

- deposition overpotential [1]: ca. −350 mV vs. Mg/Mg^2+
- oxidative stability [1]: ca. 4.05 V vs. Mg/Mg^2+
Molecule: [Mg(DME)3][^PhSi^F24]2 [2-[Mg(DME)3]]

Molecule: [Pd(dppe)(NCMe)Me][^tBu2ArSi^F24] [3-[Pd(dppe)(NCMe)Me]]
- Activity [4, 7]: 1.67 g/mmol/h
- Polymer Yield [4, 7]: 50.2
- Activity ([4]; 100 psi of C2H4/CO): 1.7 g/mmol/h

Molecule: [Pd(dppe)(NCMe)Me]^+[^MeSi^F24]
- Activity [4, 7]: 1.06 g/mmol/h
- Polymer Yield [4, 7]: 31.9

— patent US20250149635A1, “SILICATE PLATFORM AS WEAKLY-COORDINATING ANIONS FOR DIVERSE ORGANOMETALLIC TRANSFORMATIONS AND ELECTROCHEMICAL APPLICATIONS” (California Institute of Technology, priority 2023, published 2025)
